Results as given in patent CN117567270A, “一种醇胺-壬二酸超分子离子盐及其制备和应用” (Jiangnan University, priority 2023, dated 2024).

Key:
[1] = test system: Escherichia coli [大肠埃希氏菌]; assay: Antibacterial challenge test (single inoculation, 28 d), Escherichia coli; assay type: cell-based; settings: for increase of bacterial count: 14~28 d; for sterilising effect (compared with control group): 7 d, control group: azelaic acid neutralised to pH 7.0
[2] = test system: Pseudomonas aeruginosa [铜绿假单胞菌]; assay: Antibacterial challenge test (single inoculation, 28 d), Pseudomonas aeruginosa; assay type: cell-based; settings: for increase of bacterial count: 14~28 d; for sterilising effect (compared with control group): 7 d, control group: azelaic acid neutralised to pH 7.0
[3] = test system: Staphylococcus aureus [金黄色葡萄球菌]; assay: Antibacterial challenge test (single inoculation, 28 d), Staphylococcus aureus; assay type: cell-based; settings: 14~28 d
[4] = test system: Escherichia coli, Pseudomonas aeruginosa and Staphylococcus aureus [大肠埃希氏菌、铜绿假单胞菌和金黄色葡萄球菌]; assay: Antibacterial challenge test, overall result; assay type: cell-based; settings: for antibacterial challenge test passed: criterion: log decline at 14 d not less than 2.0 and no rise 14~28 d
[5] = test system: human skin stratum corneum [人体皮肤角质层]; assay: Moisturising performance test (skin water content by capacitance method); assay type: in vivo; settings: toner with azelaic acid mass fraction 0.2%; for water content of human skin: 1 h after application; for moisturising ability (compared with control group): long time; for water loss of skin (compared with control group): longer time; for water replenishing ability (compared with control group): short time
[6] = background statement; cited from earlier work
[7] = Storage stability of the salt and its water dilutions; assay type: physicochemical; settings: 3 months, undiluted and diluted 1, 5, 10, 20, 50 times with water
[8] = High/low temperature cycling of the salt and its water dilutions; assay type: physicochemical; settings: 15 cycles -5~40℃; undiluted and diluted 1, 5, 10, 20, 50 times with water

Row | SMILES | increase of bacterial count [1] | increase of bacterial count [2] | increase of bacterial count [3] | antibacterial challenge test passed [4] | water content of human skin [5] | solubility in water [6] | sterilising effect (compared with control group) [1] | sterilising effect (compared with control group) [2] | short-term antibacterial effect compared with azelaic acid [4] | moisturising ability (compared with control group) [5] | water loss of skin (compared with control group) [5] | water replenishing ability (compared with control group) [5] | precipitation of insolubles and colour change ([7]; 45℃ oven) | precipitation of insolubles and colour change ([7]; room temperature, natural light) | precipitation of insolubles and colour change [8]
1 | O=C(O)CCCCCCCC(=O)O [壬二酸, reference compound] | 不增加 | 不增加 | 不增加 | 通过抗菌挑战测试 | 明显上升 | 很低 |  |  |  |  |  |  |  |  | 
2 | NCC(O)CO.NCC(O)CO.O=C(O)CCCCCCCC(=O)O [实施例2, 氨基丙二醇-壬二酸超分子离子盐] | 不增加 | 不增加 | 不增加 | 通过抗菌挑战测试 | 明显上升 |  | 更加优异 | 更加优异 | 优于壬二酸 | 更加优异 | 较为缓慢 | 更加优异 | 无不溶物析出且无颜色变化 | 无不溶物析出且无颜色变化 | 无不溶物析出且无颜色变化
3 | O=C(O)CCCCCCCC(=O)O.OCCN(CCO)CCO.OCCN(CCO)CCO [实施例1, 三乙醇胺-壬二酸超分子离子盐] | 不增加 | 不增加 | 不增加 |  | 明显上升 |  | 更加优异 | 更加优异 | 优于壬二酸 | 更加优异 | 较为缓慢 | 更加优异 |  |  | 
4 | CC(C)(N)CO.O=C(O)CCCCCCCC(=O)O [实施例3, 氨甲基丙醇-壬二酸超分子离子盐] | 不增加 | 不增加 | 不增加 | 通过抗菌挑战测试 | 明显上升 |  | 更加优异 | 更加优异 | 优于壬二酸 | 更加优异 | 较为缓慢 | 更加优异 |  |  | 
